From paper PMC7380166, “How to Study the Metabolism of New Psychoactive Substances for the Purpose of Toxicological Screenings—A Follow-Up Study Comparing Pooled Human Liver S9, HepaRG Cells, and Zebrafish Larvae” (Frontiers in Chemistry, 2020)
Where two headings read alike, the source gives them in different places.

How the values were obtained:
[1] = tested on: zebrafish larvae; assay: Zebrafish larvae exposure, metabolite identification by LC-HRMS/MS; details: larvae 4 dpf, 24 h, larvae extract, one replicate of n = 3, n.d. = not detected; for Absolute peak area, Zebrafish larvae [25 μM]: 25 μM 4F-MDMB-BINACA in medium; for Absolute peak area, Zebrafish larvae [100 µM]: 100 µM parent NPS in medium
[2] = tested on: HepaRG cells; assay: Incubations with HepaRG cells, metabolite identification by LC-HRMS/MS; assay type: in vitro ADME, human; details: 24 h, cell culture medium, one replicate of n = 3, n.d. = not detected; for Absolute peak area, HepaRG [25 μM]: 25 μM parent NPS; for Absolute peak area, HepaRG [250 μM]: 250 μM parent NPS
[3] = n = 2, according to literature, cited from earlier work
[4] = ephylone and metabolites, ref Wagmann et al., 2019a
[5] = 1P-LSD and metabolites, ref Wagmann et al., 2019b
[6] = 3,4-DMA-NBOMe and metabolites, ref Caspar et al., 2018
[7] = 4F-PHP and metabolites, ref Wagmann et al., 2019a

| Structure (SMILES) | Absolute peak area, HepaRG [25 μM] [2] | Absolute peak area, HepaRG [250 μM] [2] | Absolute peak area, Zebrafish larvae [100 µM] [1] | other results |
| --- | --- | --- | --- | --- |
| CC1(C)COC(=O)[C@H]1NC(=O)c1n[nH]c2ccccc12 [MB2] |  |  |  | Absolute peak area, Zebrafish larvae [25 μM] [1]: 5.13E+05 |
| CC(C)(C)[C@H](NC(=O)c1nn(CCCC(=O)O)c2ccccc12)C(=O)O [MB10] | 1.68E+05 | 8.32E+05 |  | Absolute peak area, Zebrafish larvae [25 μM] [1]: 5.72E+04 |
| CC1(CO)COC(=O)[C@H]1NC(=O)c1nn(CCCCF)c2ccccc12 (stereo partly shown) [MB12] |  |  |  | Absolute peak area, Zebrafish larvae [25 μM] [1]: 1.68E+06 |
| CC(C)(C)[C@H](NC(=O)c1nn(CCCCF)c2ccccc12)C(=O)O[C@@H]1O[C@H](C(=O)O)[C@@H](O)[C@H](O)[C@H]1O [MB22] | 2.56E+07 | 3.25E+07 |  |  |
| COC(=O)C(NC(=O)c1nn(CCCC(=O)OC2OC(C(=O)O)C(O)C(O)C2O)c2ccccc12)C(C)(C)C (stereo not shown) [MB24] |  |  |  | Absolute peak area, Zebrafish larvae [25 μM] [1]: 2.34E+05 |
| COC(=O)C(NC(=O)c1nn(CCCCF)c2ccccc12)C(C)(C)COC1OC(C(=O)O)C(O)C(O)C1O (stereo not shown) [MB25] |  |  |  | Absolute peak area, Zebrafish larvae [25 μM] [1]: 1.75E+07 |
| CCCC(NCC)C(O)c1ccc2c(c1)OCO2 (stereo not shown) [ME5] |  |  | 7.64E+06 | Detection in pHLS9 [25 µM] [3, 4]: + |
| CCCC(C(=O)c1ccc2c(c1)OCO2)N(O)CC (stereo not shown) [ME7] |  | 1.75E+06 | 1.10E+06 | Detection in pHLS9 [25 µM] [3, 4]: + |
| CN1C[C@H](C(N)=O)C=C2c3cccc4[nH]cc(c34)C[C@H]21 [ML1] |  | 1.93E+06 |  |  |
| CN1C[C@H](C(=O)O)C=C2c3cccc4[nH]cc(c34)C[C@H]21 [ML2] | 5.16E+06 | 1.39E+07 | 3.63E+05 |  |
| CCNC(=O)[C@@H]1C=C2c3cccc4[nH]cc(c34)C[C@H]2NC1 [ML3] | 3.89E+05 | 2.20E+06 | 3.30E+05 |  |
| CCNC(=O)[C@@H]1C=C2c3cccc4[nH]cc(c34)C[C@H]2N(C)C1 [ML4] | 3.19E+07 | 2.58E+08 | 6.17E+07 | Detection in pHLS9 [25 µM] [3, 5]: + |
| CCN(CC)C(=O)[C@@H]1C=C2c3cccc4[nH]cc(c34)C[C@H]2NC1 [ML5] | 1.75E+07 | 3.37E+07 | 1.07E+07 | Detection in pHLS9 [25 µM] [3, 5]: + |
| CCC(=O)n1cc2c3c(cccc31)C1=C[C@@H](C(=O)O)CN(C)[C@@H]1C2 [ML8] |  |  | 1.07E+06 |  |
| CCN(CC)C(=O)C1C=C2c3cccc4[nH]cc(c34)C(O)C2NC1 (stereo not shown) [ML10] |  |  | 6.10E+04 |  |
| CCNC(=O)[C@@H]1C=C2c3cccc4c3c(cn4C(=O)CC)C[C@H]2NC1 [ML12] |  |  | 4.11E+05 |  |
| CCN(CCO)C(=O)C1C=C2c3cccc4[nH]cc(c34)CC2N(C)C1 (stereo not shown) [ML14] | 4.01E+05 | 4.63E+06 | 3.90E+06 |  |
| CCNC(=O)[C@@H]1C=C2c3cccc4c3c(cn4C(=O)CC)C[C@H]2N(C)C1 [ML17] |  |  | 1.48E+08 | Detection in pHLS9 [25 µM] [3, 5]: + |
| CCN(CC)C(=O)[C@@H]1C=C2c3cccc4c3C(O)(C[C@H]2N(C)C1)C(=O)N4 (stereo partly shown) [ML18, 2−oxo−3−hydroxy LSD] | 7.00E+06 | 3.67E+06 | 6.93E+06 | Detection in pHLS9 [25 µM] [3, 5]: + |

| Structure (SMILES) | Absolute peak area, HepaRG [25 μM] [2] | Absolute peak area, HepaRG [250 μM] [2] | Absolute peak area, Zebrafish larvae [100 µM] [1] | other results |
| --- | --- | --- | --- | --- |
| CCC(=O)n1cc2c3c(cccc31)C1=C[C@@H](C(=O)N(CC)CC)CN[C@@H]1C2 [ML20] | 3.19E+04 | 3.74E+06 | 3.77E+07 | Detection in pHLS9 [25 µM] [3, 5]: + |
| CCC(=O)n1cc2c3c(cccc31)C1=C[C@@H](C(=O)N(CC)CCO)CN(C)[C@@H]1C2 [ML23] |  |  | 3.31E+07 |  |
| CCC(=O)n1cc2c3c(cccc31)C1=C[C@@H](C(=O)N(CC)CC)CN(C)[C@@H]1C2O (stereo partly shown) [ML24] |  |  | 3.37E+07 |  |
| CCN(CCOC1OC(C(=O)O)C(O)C(O)C1O)C(=O)C1C=C2c3cccc4[nH]cc(c34)CC2N(C)C1 (stereo not shown) [ML28] |  | 1.07E+05 |  |  |
| COc1ccc(CC(C)N)cc1OC (stereo not shown) [MN1] | 4.04E+07 | 9.84E+07 | 3.29E+07 | Detection in pHLS9 [25 µM] [3, 6]: + |
| COc1ccccc1CNC(C)Cc1ccc(O)c(O)c1 (stereo not shown) [MN2] |  |  |  | Detection in pHLS9 [25 µM] [3, 6]: + |
| COc1ccc(CC(C)NCc2ccccc2O)cc1OC (stereo not shown) [MN7] | 1.19E+07 | 1.17E+08 | 1.19E+08 | Detection in pHLS9 [25 µM] [3, 6]: + |
| COc1ccc(CC(C)N(O)Cc2ccccc2O)cc1OC (stereo not shown) [MN9] |  |  | 3.57E+05 |  |
| COc1ccccc1CN(O)C(C)Cc1ccc(OC)c(OC)c1 (stereo not shown) [MN12] |  | 4.60E+05 | 8.81E+06 |  |
| COc1ccc(CC(C)NCc2ccccc2O[C@@H]2O[C@H](C(=O)O)[C@@H](O)[C@H](O)[C@H]2O)cc1OC (stereo partly shown) [MN22] |  |  |  | Detection in pHLS9 [25 µM] [3, 6]: + |
| CCCCC(N)C(=O)c1ccc(F)cc1 (stereo not shown) [MP1] | 1.48E+05 | 1.82E+06 | 4.83E+05 | Detection in pHLS9 [25 µM] [3, 7]: + |
| CCCCC(C(O)c1ccc(F)cc1)N1CCCC1 (stereo not shown) [MP2] | 1.18E+07 | 6.41E+07 | 2.98E+07 | Detection in pHLS9 [25 µM] [3, 7]: + |
| CCCCC(C(=O)c1ccc(F)cc1)N1CCC(=O)C1 (stereo not shown) [MP3] |  |  | 7.58E+04 |  |
| CCCCC(C(=O)c1ccc(F)cc1)N1CCCC1=O (stereo not shown) [MP4] |  |  | 8.64E+05 | Detection in pHLS9 [25 µM] [3, 7]: + |
| CC(O)CCC(C(=O)c1ccc(F)cc1)N1CCCC1 (stereo not shown) [MP5] | 1.14E+06 | 1.07E+07 | 7.71E+06 | Detection in pHLS9 [25 µM] [3, 7]: + |
| CCCCC(C(=O)c1ccc(F)cc1)[N+]1([O-])CCCC1 (stereo not shown) [MP8] |  | 1.47E+05 | 2.50E+06 |  |
| CC(O)CCC(C(O)c1ccc(F)cc1)N1CCCC1 (stereo not shown) [MP9] | 8.15E+05 | 6.48E+06 | 3.78E+07 |  |
| CCCCC(C(O[C@@H]1O[C@H](C(=O)O)[C@@H](O)[C@H](O)[C@H]1O)c1ccc(F)cc1)N1CCCC1 (stereo partly shown) [MP10] |  | 2.91E+04 |  | Detection in pHLS9 [25 µM] [3, 7]: + |
| CC(CCC(C(=O)c1ccc(F)cc1)N1CCCC1)OC1OC(C(=O)O)C(O)C(O)C1O (stereo not shown) [MP11] |  |  | 1.15E+06 | Detection in pHLS9 [25 µM] [3, 7]: + |
